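1) Cells in 96-well plates. 2) Compound, 48 h, 5 concentrations. 3) Linear interpolation between surrounding doses. 4) Unreached endpoint = highest concentration. GI50 = concentration required for 50% inhibition of growth.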 The source made the active and inactive calls. Cut-off read from the data, not from the text of the source: active = GI50 up to about 1.1 µM and inactive = higher.
Key:
Test in all cases: inhibition of tumour cell growth, NCI panel, 48 h
HT-29 = system: HT-29
OVCAR-4 = system: OVCAR-4
IGROV-1 = system: IGROV-1
HCT-15 = system: HCT-15
SF-268 = system: SF-268
HCC 2998 = system: HCC 2998
LOX IMVI = system: LOX IMVI
NCI-H522 = system: NCI-H522
RPMI-8226 = system: RPMI-8226
SW-620 = system: SW-620
SNB-19 = system: SNB-19
OVCAR-8 = system: OVCAR-8
Hs-578T = system: Hs-578T
U-251 = system: U-251
MDA-MB-435 = system: MDA-MB-435
SK-MEL-2 = system: SK-MEL-2
M14 = system: M14
MDA-MB-231 = system: MDA-MB-231
786-0 = system: 786-0
RXF 393 = system: RXF 393

SMILES	GI50 (HT-29)	GI50 (OVCAR-4)	GI50 (IGROV-1)	GI50 (HCT-15) [µM]	GI50 (SF-268)	GI50 (HCC 2998)	GI50 (LOX IMVI)	GI50 (NCI-H522)	GI50 (RPMI-8226)	GI50 (SW-620)	GI50 (SNB-19)	GI50 (OVCAR-8)	GI50 (Hs-578T)	GI50 (U-251)	GI50 (MDA-MB-435)	GI50 (SK-MEL-2)	GI50 (M14)	GI50 (MDA-MB-231)	GI50 (786-0)	GI50 (RXF 393)
CCc1nc2cc(/N=N/c3c(O)ccc4ccccc34)ccc2[nH]1	19.4 µM (inactive)	14 µM (inactive)	19.6 µM (inactive)	12.6	22.2 µM (inactive)	14.6 µM (inactive)	10.1 µM (inactive)	18.1 µM (inactive)	10.5 µM (inactive)	22.5 µM (inactive)	31.3 µM (inactive)	14.5 µM (inactive)	21.1 µM (inactive)	16 µM (inactive)	19.7 µM (inactive)	19.8 µM (inactive)	19.6 µM (inactive)	20.7 µM (inactive)	16.1 µM (inactive)	12.6 µM (inactive)
O=C1OC(C2OC(=O)c3cc(O)c(O)c(O)c3-c3c(O)c(O)c4oc(=O)c5c(c(O)c(O)c6oc(=O)c3c4c65)-c3c(cc(O)c(O)c3O)C(=O)OCC2O)C2OC(=O)c3c(c(O)c(O)c(O)c3[C@H]2O)-c2c1cc(O)c(O)c2O (stereo not given in full)	13.3 µM (inactive)	16.1 µM (inactive)	25.6 µM (inactive)	13.2	24.7 µM (inactive)	43.6 µM (inactive)	11.5 µM (inactive)	17.1 µM (inactive)	28.5 µM (inactive)	19 µM (inactive)	96.8 µM (inactive)	20.2 µM (inactive)	38.6 µM (inactive)	20.9 µM (inactive)	14 µM (inactive)	31.6 µM (inactive)	16.4 µM (inactive)	13.5 µM (inactive)	18.2 µM (inactive)	26.5 µM (inactive)
N=C(N)NCCN1CC2CCC(CC2)C1	65.2 µM (inactive)	> 100 µM (inactive)	> 100 µM (inactive)	> 100	> 100 µM (inactive)	> 100 µM (inactive)	> 100 µM (inactive)	> 100 µM (inactive)	> 100 µM (inactive)	> 100 µM (inactive)	> 100 µM (inactive)	> 100 µM (inactive)	91.4 µM (inactive)	> 100 µM (inactive)	48.5 µM (inactive)	> 100 µM (inactive)	> 100 µM (inactive)	> 100 µM (inactive)	> 100 µM (inactive)	> 100 µM (inactive)
Oc1c([Si](c2ccccc2)(c2ccccc2)c2ccccc2)cc2ccccc2c1-c1c(O)c([Si](c2ccccc2)(c2ccccc2)c2ccccc2)cc2ccccc12	> 100 µM (inactive)	> 100 µM (inactive)	> 100 µM (inactive)	> 100	> 100 µM (inactive)	> 100 µM (inactive)	> 100 µM (inactive)	> 100 µM (inactive)	> 100 µM (inactive)	> 100 µM (inactive)	> 100 µM (inactive)	> 100 µM (inactive)	> 100 µM (inactive)	> 100 µM (inactive)	> 100 µM (inactive)	> 100 µM (inactive)	> 100 µM (inactive)	> 100 µM (inactive)	> 100 µM (inactive)	> 100 µM (inactive)
Cc1ccccc1OC(C)C(=O)NN1C(=O)CSC1c1ccccc1 (stereo not given)	93.1 µM (inactive)	> 100 µM (inactive)	> 100 µM (inactive)	65.3	> 100 µM (inactive)	63.2 µM (inactive)	> 100 µM (inactive)	61.9 µM (inactive)	34.2 µM (inactive)	> 100 µM (inactive)	67.6 µM (inactive)	> 100 µM (inactive)	> 100 µM (inactive)	96.4 µM (inactive)	79.3 µM (inactive)	> 100 µM (inactive)	> 100 µM (inactive)	> 100 µM (inactive)	> 100 µM (inactive)	45 µM (inactive)
O=c1cc(N=P(c2ccccc2)(c2ccccc2)c2ccccc2)n(-c2ccccc2)c(=O)n1-c1ccccc1	15.9 µM (inactive)	4.95 µM (inactive)	17.9 µM (inactive)	3.38	29 µM (inactive)	8.26 µM (inactive)	8.77 µM (inactive)	14.4 µM (inactive)	4.92 µM (inactive)	7.45 µM (inactive)	17.7 µM (inactive)	12.3 µM (inactive)	18.2 µM (inactive)	8.02 µM (inactive)	5.2 µM (inactive)	13.8 µM (inactive)	8.79 µM (inactive)	8.18 µM (inactive)	6.3 µM (inactive)	1.53 µM (inactive)
COc1cc(-c2[o+]c3cc(O)cc(OC4OC(CO)C(O)C(O)C4O)c3cc2OC2OC(CO)C(O)C(O)C2O)cc(OC)c1O (stereo not given)	> 100 µM (inactive)	> 100 µM (inactive)	> 100 µM (inactive)	> 100	> 100 µM (inactive)	> 100 µM (inactive)	> 100 µM (inactive)	> 100 µM (inactive)	> 100 µM (inactive)	> 100 µM (inactive)	> 100 µM (inactive)	> 100 µM (inactive)	> 100 µM (inactive)	> 100 µM (inactive)	> 100 µM (inactive)	> 100 µM (inactive)	> 100 µM (inactive)	> 100 µM (inactive)	> 100 µM (inactive)	> 100 µM (inactive)
CCOP(=O)(OCC)/C(C#N)=C/c1cnc(C)[nH]1	> 100 µM (inactive)	> 100 µM (inactive)	> 100 µM (inactive)	> 100	> 100 µM (inactive)	> 100 µM (inactive)	> 100 µM (inactive)	> 100 µM (inactive)	> 100 µM (inactive)	> 100 µM (inactive)	> 100 µM (inactive)	> 100 µM (inactive)	> 100 µM (inactive)	> 100 µM (inactive)	> 100 µM (inactive)	> 100 µM (inactive)	> 100 µM (inactive)	> 100 µM (inactive)	> 100 µM (inactive)	> 100 µM (inactive)
CC[C@@H]1CC[C@@H]2[C@H](CC[C@]3(C)[C@@H](OC(C)=O)CC[C@@H]23)[C@H]1C(=O)OC	25 µM (inactive)	19.9 µM (inactive)	24.8 µM (inactive)	22	23.4 µM (inactive)	97.9 µM (inactive)	20 µM (inactive)	27.2 µM (inactive)	19.6 µM (inactive)	21.8 µM (inactive)	25.4 µM (inactive)	27.9 µM (inactive)	46.1 µM (inactive)	21.2 µM (inactive)	20.9 µM (inactive)	20.1 µM (inactive)	19.6 µM (inactive)	20.6 µM (inactive)	23.4 µM (inactive)	24.6 µM (inactive)
Cc1ccc(S(=O)(=O)N2CC(CCN)c3ccccc32)cc1 (stereo not given)	2.89 µM (inactive)	17.5 µM (inactive)	3.28 µM (inactive)	4.05	5.31 µM (inactive)	4.76 µM (inactive)	2.99 µM (inactive)	5.87 µM (inactive)	6.01 µM (inactive)	4.34 µM (inactive)	4.97 µM (inactive)	3.59 µM (inactive)	5.62 µM (inactive)	3.72 µM (inactive)	1.53 µM (inactive)	4.28 µM (inactive)	2.29 µM (inactive)	4.1 µM (inactive)	3.89 µM (inactive)	2.74 µM (inactive)
